Assay results reported in ChEMBL document CHEMBL1147732, “Novel tacrine-melatonin hybrids as dual-acting drugs for Alzheimer disease, with improved acetylcholinesterase inhibitory and antioxidant properties” (J Med Chem, 2006).

Columns and labels:
Acetylcholinesterase [1] = biological target: T1, Acetylcholinesterase (Bos taurus, UniProt P23795)
T1 sequence (P23795 whole entry): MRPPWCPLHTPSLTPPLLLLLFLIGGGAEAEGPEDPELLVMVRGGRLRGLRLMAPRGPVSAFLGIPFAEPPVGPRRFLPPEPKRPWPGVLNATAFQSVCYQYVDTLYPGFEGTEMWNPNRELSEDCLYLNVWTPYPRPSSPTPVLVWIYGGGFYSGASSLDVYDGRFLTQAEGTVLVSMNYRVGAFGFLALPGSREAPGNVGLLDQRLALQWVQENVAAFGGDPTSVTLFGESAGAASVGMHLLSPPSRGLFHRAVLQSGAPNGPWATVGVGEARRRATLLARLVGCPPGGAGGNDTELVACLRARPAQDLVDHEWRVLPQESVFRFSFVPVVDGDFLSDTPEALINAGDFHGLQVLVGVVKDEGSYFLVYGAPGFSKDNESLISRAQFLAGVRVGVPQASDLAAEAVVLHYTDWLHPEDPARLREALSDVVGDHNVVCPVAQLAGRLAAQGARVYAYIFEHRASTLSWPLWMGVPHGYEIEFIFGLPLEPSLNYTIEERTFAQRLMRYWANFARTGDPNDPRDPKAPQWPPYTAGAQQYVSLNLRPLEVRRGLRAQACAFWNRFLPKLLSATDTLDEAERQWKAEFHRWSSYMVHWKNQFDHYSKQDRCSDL
Description: Inhibition of AchE from bovine erythrocytes

Butyrylcholinesterase = Butyrylcholinesterase (Equus caballus, UniProt Q9N1N9)
Description: Inhibition of BuChE from horse serum

in vitro = details: pig, PAMPA
Description: Permeability in BBB by PAMPA using a lipid extract of porcine brain

Acetylcholinesterase [2] = biological target: Acetylcholinesterase (Homo sapiens, UniProt P22303)
Cholinesterase = Cholinesterase (Homo sapiens, UniProt P06276)
Chain of Cholinesterase (P06276 whole entry): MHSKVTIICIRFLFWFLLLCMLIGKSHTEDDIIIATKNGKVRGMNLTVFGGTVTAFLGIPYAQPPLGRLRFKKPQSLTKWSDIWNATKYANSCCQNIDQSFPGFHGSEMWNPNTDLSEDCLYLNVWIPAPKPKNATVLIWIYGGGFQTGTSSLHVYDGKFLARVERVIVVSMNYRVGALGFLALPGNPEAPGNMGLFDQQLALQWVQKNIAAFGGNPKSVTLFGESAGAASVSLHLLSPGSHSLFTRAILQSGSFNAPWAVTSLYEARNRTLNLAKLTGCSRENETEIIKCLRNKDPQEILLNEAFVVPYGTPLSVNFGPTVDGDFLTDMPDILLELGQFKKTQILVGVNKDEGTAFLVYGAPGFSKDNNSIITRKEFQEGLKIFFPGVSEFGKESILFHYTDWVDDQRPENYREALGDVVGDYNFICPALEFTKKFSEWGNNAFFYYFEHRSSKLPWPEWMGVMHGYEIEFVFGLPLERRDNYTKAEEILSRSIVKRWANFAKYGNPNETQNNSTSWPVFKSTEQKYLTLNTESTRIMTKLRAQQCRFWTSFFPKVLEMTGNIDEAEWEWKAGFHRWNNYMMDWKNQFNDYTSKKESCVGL
Description: Inhibition of human BuChE

Chain of Butyrylcholinesterase (Q9N1N9 whole entry): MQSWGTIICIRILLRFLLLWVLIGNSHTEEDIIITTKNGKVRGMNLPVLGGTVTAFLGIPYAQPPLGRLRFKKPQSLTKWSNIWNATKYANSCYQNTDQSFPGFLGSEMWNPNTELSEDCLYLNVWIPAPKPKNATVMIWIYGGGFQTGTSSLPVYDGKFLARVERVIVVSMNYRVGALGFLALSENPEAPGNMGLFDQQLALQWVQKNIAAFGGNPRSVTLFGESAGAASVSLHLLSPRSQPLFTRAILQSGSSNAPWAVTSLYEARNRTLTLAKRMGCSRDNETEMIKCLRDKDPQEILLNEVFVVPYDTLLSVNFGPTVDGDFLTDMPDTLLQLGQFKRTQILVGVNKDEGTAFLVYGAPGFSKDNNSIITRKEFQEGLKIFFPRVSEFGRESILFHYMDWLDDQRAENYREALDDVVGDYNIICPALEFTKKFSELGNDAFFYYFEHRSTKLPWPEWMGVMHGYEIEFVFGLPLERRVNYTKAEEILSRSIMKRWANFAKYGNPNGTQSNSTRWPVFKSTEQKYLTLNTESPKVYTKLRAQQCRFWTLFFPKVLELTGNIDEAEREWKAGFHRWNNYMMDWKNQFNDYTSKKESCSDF
Chain of Acetylcholinesterase (Homo sapiens, UniProt P22303) (P22303 whole entry): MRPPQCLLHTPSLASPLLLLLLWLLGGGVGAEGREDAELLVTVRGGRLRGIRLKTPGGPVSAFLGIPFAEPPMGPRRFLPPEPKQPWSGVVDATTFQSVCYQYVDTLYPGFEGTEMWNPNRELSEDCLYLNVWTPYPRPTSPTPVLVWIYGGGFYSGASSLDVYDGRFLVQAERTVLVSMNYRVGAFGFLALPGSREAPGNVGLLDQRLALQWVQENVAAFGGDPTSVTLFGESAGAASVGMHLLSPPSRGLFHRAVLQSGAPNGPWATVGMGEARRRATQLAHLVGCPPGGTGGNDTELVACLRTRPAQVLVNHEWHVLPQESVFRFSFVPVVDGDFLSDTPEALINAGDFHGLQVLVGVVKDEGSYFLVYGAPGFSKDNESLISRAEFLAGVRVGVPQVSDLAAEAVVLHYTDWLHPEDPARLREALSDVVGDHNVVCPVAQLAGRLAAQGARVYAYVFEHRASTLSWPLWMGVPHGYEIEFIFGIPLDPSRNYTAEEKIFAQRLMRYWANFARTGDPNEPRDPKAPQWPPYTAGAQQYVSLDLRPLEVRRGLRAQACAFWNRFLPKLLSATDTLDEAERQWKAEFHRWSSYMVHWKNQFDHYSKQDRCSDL

Compound | IC50 (Acetylcholinesterase [1]) | IC50 (Butyrylcholinesterase) | Papp (in vitro) | IC50 (Acetylcholinesterase [2]) | IC50 (Cholinesterase)
O=C(CCCCCNc1c2c(nc3ccccc13)CCCC2)NCCc1c[nH]c2ccccc12 | 4 nM | 12 nM | 11 ×10⁻⁶ cm/s | – | –
O=C(CCCCCNc1c2c(nc3cc(Cl)cc(Cl)c13)CCCC2)NCCc1c[nH]c2ccccc12 | 3.5 nM | 8.2 nM | 8.4 ×10⁻⁶ cm/s | – | –
O=C(CCCCCNc1c2c(nc3cccc(Cl)c13)CCCC2)NCCc1c[nH]c2ccccc12 | 65 nM | 15 nM | 5.2 ×10⁻⁶ cm/s | 0.87 nM | 23 nM
O=C(CCCCCCNc1c2c(nc3ccccc13)CCCC2)NCCc1c[nH]c2ccccc12 | 1 nM | 0.95 nM | 9.2 ×10⁻⁶ cm/s | 0.5 nM | 6.8 nM
O=C(CCCCCNc1c2c(nc3ccccc13)CCCC2)NCCc1c[nH]c2ccc(O)cc12 | 35 nM | 3.5 nM | 2 ×10⁻⁶ cm/s | 0.45 nM | 1 nM
COc1ccc2[nH]cc(CCNC(=O)CCCCCNc3c4c(nc5cccc(Cl)c35)CCCC4)c2c1 | 25 nM | 22 nM | 8.9 ×10⁻⁶ cm/s | – | –
COc1ccc2[nH]cc(CCNC(C)=O)c2c1 [MELATONIN] | > 100 nM | > 100 nM | – | – | –
COc1ccc2[nH]cc(CCNC(=O)CCCCCNc3c4c(nc5ccccc35)CCCC4)c2c1 | 9 nM | 2 nM | 7.7 ×10⁻⁶ cm/s | – | –
O=C(CCCCCCNc1c2c(nc3cc(Cl)cc(Cl)c13)CCCC2)NCCc1c[nH]c2ccccc12 | 2 nM | 85 nM | – | 0.008 nM | 7.8 nM
COc1ccc2[nH]cc(CCNC(=O)CCCCCCNc3c4c(nc5cc(Cl)cc(Cl)c35)CCCC4)c2c1 | 5 nM | 100 nM | – | 0.04 nM | 25 nM
O=C(CCCCCCNc1c2c(nc3cc(Cl)ccc13)CCCC2)NCCc1c[nH]c2ccccc12 | 0.2 nM | 8.1 nM | – | 0.1 nM | 35 nM
COc1ccc2[nH]cc(CCNC(=O)CCCCCCNc3c4c(nc5ccccc35)CCCC4)c2c1 | 2.3 nM | 2.5 nM | 8.6 ×10⁻⁶ cm/s | 0.65 nM | 3 nM
COc1ccc2[nH]cc(CCNC(=O)CCCCCNc3c4c(nc5cc(Cl)ccc35)CCCC4)c2c1 | 12 nM | 55 nM | – | – | –
O=C(CCCCCNc1c2c(nc3cc(Cl)ccc13)CCCC2)NCCc1c[nH]c2ccccc12 | 2 nM | 5.2 nM | 7.7 ×10⁻⁶ cm/s | – | –
